Laboratory results published in patent US20250326771A1, “PIPERAZINE DERIVATIVES USEFUL IN HIV THERAPY” (VIIV HEALTHCARE COMPANY, priority 2022, published 2025).
Like-named read-outs stand apart in the source and are kept apart here.

Key:
[1] = molecular target: cIAP2-BIR2 (Homo sapiens (Human), UniProt Q13489); test: BIR binding assay (FRET competition), cIAP2 BIR2
Method in brief: (§1)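 615/665 nm FRET ratio. Compound, His-domain and 200 nM AF647-SMAC peptide incubated 60 min, then 2 nM Eu-W1024 for 30 min. Domains: cIAP1-BIR3 50 nM; XIAP-BIR3 100 nM; cIAP1-BIR2, cIAP2-BIR2 325 nM each. 15-pt 3-fold series; variable-slope IC50.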

[2] = molecular target: cIAP2-BIR3 (Homo sapiens (Human), UniProt Q13489); test: BIR binding assay (FRET competition), cIAP2 BIR3; details: for cIAP2 BIR3 vs BIR2 separation window: fold separation (FS) for cIAP2
[3] = tested on: Jurkat HIV-luciferase clones; test: Jurkat latency reversal assay; type: cell-based; details: Homo sapiens, 48 h; Jurkat latency reversal assay potency; read-out: Jurkat pEC50 (converted)
Method in brief: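 Pooled Jurkat clones C16, 115 and N6, each carrying one or two integrated HIV-luciferase proviruses and kept in 500 nM EFV, were exposed to 3-fold, 14-point compound titrations in duplicate (10 μM top, 0.5% DMSO) for 48 h at 37° C. Luciferase luminescence was fitted by four-parameter logistic regression for EC50 and maximal percent activation versus vehicle.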

[4] = molecular target: XIAP-BIR2 (Homo sapiens (Human), UniProt P98170); test: BIR binding assay (FRET competition), XIAP BIR2
Method in brief: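 Competitive TR-FRET used His-tagged XIAP-BIR2 (200 nM) and 200 nM AlexaFluor647-labelled AVPIAQKSE SMAC peptide in HEPES buffer pH 7.4 with CHAPS, glycerol and DTT, incubated 60 min before 30 min with 2 nM Eu-W1024. The 615/665 nm ratio from a 15-point, 3-fold series was fit with a four-parameter model for IC50/pIC50.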

[5] = molecular target: cIAP1-BIR3 (Homo sapiens (Human), UniProt Q13490); test: BIR binding assay (FRET competition), cIAP1 BIR3; details: for cIAP1 BIR3 vs BIR2 separation window: fold separation (FS) for cIAP1
Method in brief: as §1

[6] = molecular target: XIAP-BIR3 (Homo sapiens (Human), UniProt P98170); test: BIR binding assay (FRET competition), XIAP BIR3; details: for XIAP BIR3 vs BIR2 separation window: fold separation (FS) for XIAP
Method in brief: as §1

[7] = molecular target: cIAP1-BIR2 (Homo sapiens (Human), UniProt Q13490); test: BIR binding assay (FRET competition), cIAP1 BIR2
Method in brief: as §1

[8] = FRET competition binding, read-out: XIAP BIR2 (pIC50) (converted)

cIAP1-BIR3, sequence (Q13490 253-363): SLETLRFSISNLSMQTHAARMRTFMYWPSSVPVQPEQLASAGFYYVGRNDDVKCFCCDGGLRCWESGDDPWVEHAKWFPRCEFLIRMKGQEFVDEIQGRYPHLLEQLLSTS
cIAP2-BIR3, sequence (Q13489 238-349): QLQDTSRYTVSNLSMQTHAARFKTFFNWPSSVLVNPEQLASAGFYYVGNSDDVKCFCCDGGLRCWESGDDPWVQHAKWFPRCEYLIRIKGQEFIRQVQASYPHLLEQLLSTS
XIAP-BIR2, sequence (P98170 124-240): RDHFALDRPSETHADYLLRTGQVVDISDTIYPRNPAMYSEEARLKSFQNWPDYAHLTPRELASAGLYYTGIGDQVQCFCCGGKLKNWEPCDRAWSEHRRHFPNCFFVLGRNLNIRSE
XIAP-BIR3, sequence (P98170 241-356): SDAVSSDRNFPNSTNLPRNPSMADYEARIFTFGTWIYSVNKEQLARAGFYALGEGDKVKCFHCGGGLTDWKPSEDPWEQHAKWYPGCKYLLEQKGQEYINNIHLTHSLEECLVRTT
cIAP1-BIR2, sequence (Q13490 173-257): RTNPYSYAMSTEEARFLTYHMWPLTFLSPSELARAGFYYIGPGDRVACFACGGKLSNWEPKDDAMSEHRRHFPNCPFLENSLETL
cIAP2-BIR2, sequence (Q13489 158-242): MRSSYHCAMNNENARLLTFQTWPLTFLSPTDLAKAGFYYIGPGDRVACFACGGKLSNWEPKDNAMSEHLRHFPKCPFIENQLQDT

| Structure (SMILES) | IC50 [1] [nM] | IC50 [2] [nM] | cIAP2 BIR3 vs BIR2 separation window [2] | EC50 [3] [nM] | IC50 [4] [nM] | IC50 [5] [nM] | cIAP1 BIR3 vs BIR2 separation window [5] | IC50 [6] [nM] | XIAP BIR3 vs BIR2 separation window [6] | IC50 [7] [nM] | IC50 [4, 8] [nM] |
| --- | --- | --- | --- | --- | --- | --- | --- | --- | --- | --- | --- |
| C[C@@H]1CN(CC(=O)N2CC(C)(C)c3[nH]c(=O)c(Cc4ccc(F)cc4)cc32)[C@@H](CN2CCO[C@H](C(=O)N3CCN(C(=O)[C@@H]4CN(C[C@H]5CN[C@H](C)CN5CC(=O)N5CC(C)(C)c6[nH]c(=O)c(Cc7ccc(F)cc7)cc65)CCO4)CC3)C2)CN1 [Example 118, 1,1′-(2,2′-((3R,3′R,6R,6′R)-(((2S,2'S)-(piperazine-1,4-dicarbonyl)bis(morpholine-2,4-diyl))bis(methylene))bis(3-methylpiperazine-6,1-diyl))bis(acetyl))bis(6-(4-fluorobenzyl)-3,3-dimethyl-1,2,3,4-tetrahydro-5H-pyrrolo[3,2-b]pyridin-5-one)] | 1000 to 3160 | 7.94 to 15.8 | +++ (10,000>FS>1,000) | 12.6 to 63.1 | 10000 to 51300 | 7.94 to 15.8 | +++ (10,000>FS>1,000) | 7.94 to 15.8 | ++++ (FS>10,000) | 1000 to 3160 | – |
| C[C@@H]1CN(CC(=O)N2CC(C)(C)c3[nH]c(=O)c(Cc4ccc(F)cc4)cc32)[C@@H](CN2CCO[C@H](C(=O)NCCOCCOCCOCCNC(=O)[C@@H]3CN(C[C@H]4CN[C@H](C)CN4CC(=O)N4CC(C)(C)c5[nH]c(=O)c(Cc6ccc(F)cc6)cc54)CCO3)C2)CN1 [Example 121, (2S,2'S)-N,N′-(((oxybis(ethane-2,1-diyl))bis(oxy))bis(ethane-2,1-diyl))bis(4-(((2R,5R)-1-(2-(6-(4-fluorobenzyl)-3,3-dimethyl-5-oxo-2,3,4,5-tetrahydro-1H-pyrrolo[3,2-b]pyridin-1-yl)-2-oxoethyl)-5-methylpiperazin-2-yl)methyl)morpholine-2-carboxamide)] | 1000 to 3160 | 7.94 to 15.8 | +++ (10,000>FS>1,000) | 63.1 to 316 | – | 7.94 to 15.8 | +++ (10,000>FS>1,000) | 7.94 to 15.8 | ++++ (FS>10,000) | 1000 to 3160 | 10000 to 51300 |
| C[C@@H]1CN(CC(=O)N2CC(C)(C)c3[nH]c(=O)c(Cc4ccc(F)cc4)cc32)[C@@H](CN2CCO[C@H](C(=O)NCc3cccc(CNC(=O)[C@@H]4CN(C[C@H]5CN[C@H](C)CN5CC(=O)N5CC(C)(C)c6[nH]c(=O)c(Cc7ccc(F)cc7)cc65)CCO4)c3)C2)CN1 [Example 122, (2S,2'S)-N,N′-(1,3-phenylenebis(methylene))bis(4-(((2R,5R)-1-(2-(6-(4-fluorobenzyl)-3,3-dimethyl-5-oxo-2,3,4,5-tetrahydro-1H-pyrrolo[3,2-b]pyridin-1-yl)-2-oxoethyl)-5-methylpiperazin-2-yl)methyl)morpholine-2-carboxamide)] | 1000 to 3160 | 7.94 to 15.8 | +++ (10,000>FS>1,000) | 12.6 to 63.1 | – | 7.94 to 15.8 | ++ (1,000>FS>100) | 15.8 to 31.6 | ++++ (FS>10,000) | 1000 to 3160 | 10000 to 51300 |
| C[C@@H]1CN(CC(=O)N2CC(C)(C)c3[nH]c(=O)c(Cc4ccc(F)cc4)cc32)[C@@H](CN2CCO[C@H](C(=O)NCCCN3CCN(CCCNC(=O)[C@@H]4CN(C[C@H]5CN[C@H](C)CN5CC(=O)N5CC(C)(C)c6[nH]c(=O)c(Cc7ccc(F)cc7)cc65)CCO4)CC3)C2)CN1 [Example 123, (2S,2'S)-N,N′-(piperazine-1,4-diylbis(propane-3,1-diyl))bis(4-(((2R,5R)-1-(2-(6-(4-fluorobenzyl)-3,3-dimethyl-5-oxo-2,3,4,5-tetrahydro-1H-pyrrolo[3,2-b]pyridin-1-yl)-2-oxoethyl)-5-methylpiperazin-2-yl)methyl)morpholine-2-carboxamide)] | 3160 to 10000 | 7.94 to 15.8 | +++ (10,000>FS>1,000) | 316 to 3310 | – | 7.94 to 15.8 | +++ (10,000>FS>1,000) | 7.94 to 15.8 | ++++ (FS>10,000) | 3160 to 10000 | 10000 to 51300 |
| C[C@@H]1CN(CC(=O)N2CC(C)(C)c3[nH]c(=O)c(Cc4ccc(F)cc4)cc32)[C@@H](CN2CCO[C@H](C(=O)N(C)CCCCCCN(C)C(=O)[C@@H]3CN(C[C@H]4CN[C@H](C)CN4CC(=O)N4CC(C)(C)c5[nH]c(=O)c(Cc6ccc(F)cc6)cc54)CCO3)C2)CN1 [Example 124, (2S,2'S)-N,N′-(hexane-1,6-diyl)bis(4-(((2R,5R)-1-(2-(6-(4-fluorobenzyl)-3,3-dimethyl-5-oxo-2,3,4,5-tetrahydro-1H-pyrrolo[3,2-b]pyridin-1-yl)-2-oxoethyl)-5-methylpiperazin-2-yl)methyl)-N-methylmorpholine-2-carboxamide)] | 1000 to 3160 | 7.94 to 15.8 | +++ (10,000>FS>1,000) | 12.6 to 63.1 | – | 7.94 to 15.8 | +++ (10,000>FS>1,000) | 7.94 to 15.8 | ++++ (FS>10,000) | 1000 to 3160 | 10000 to 51300 |
| C[C@@H]1CN(CC(=O)N2CC(C)(C)c3[nH]c(=O)c(Cc4ccc(F)cc4)cc32)[C@@H](CN2CCO[C@H](C(=O)NCCCNC(=O)[C@@H]3CN(C[C@H]4CN[C@H](C)CN4CC(=O)N4CC(C)(C)c5[nH]c(=O)c(Cc6ccc(F)cc6)cc54)CCO3)C2)CN1 [Example 125, (2S,2'S)-N,N′-(Propane-1,3-diyl)bis(4-(((2R,5R)-1-(2-(6-(4-fluorobenzyl)-3,3-dimethyl-5-oxo-2,3,4,5-tetrahydro-1H-pyrrolo[3,2-b]pyridin-1-yl)-2-oxoethyl)-5-methylpiperazin-2-yl)methyl)morpholine-2-carboxamide)] | 3160 to 10000 | 7.94 to 15.8 | +++ (10,000>FS>1,000) | 63.1 to 316 | – | 7.94 to 15.8 | +++ (10,000>FS>1,000) | 15.8 to 31.6 | ++++ (FS>10,000) | 1000 to 3160 | 10000 to 51300 |
| C[C@@H]1CN(CC(=O)N2CC(C)(C)c3[nH]c(=O)c(Cc4ccc(F)cc4)cc32)[C@@H](CN2CCO[C@H](C(=O)NCCCCNC(=O)[C@@H]3CN(C[C@H]4CN[C@H](C)CN4CC(=O)N4CC(C)(C)c5[nH]c(=O)c(Cc6ccc(F)cc6)cc54)CCO3)C2)CN1 [Example 126, (2S,2'S)-N,N′-(butane-1,4-diyl)bis(4-(((2R,5R)-1-(2-(6-(4-fluorobenzyl)-3,3-dimethyl-5-oxo-2,3,4,5-tetrahydro-1H-pyrrolo[3,2-b]pyridin-1-yl)-2-oxoethyl)-5-methylpiperazin-2-yl)methyl)morpholine-2-carboxamide)] | 1000 to 3160 | 7.94 to 15.8 | +++ (10,000>FS>1,000) | 63.1 to 316 | – | 7.94 to 15.8 | +++ (10,000>FS>1,000) | 7.94 to 15.8 | ++++ (FS>10,000) | 1000 to 3160 | 10000 to 51300 |
